# Assay results published in patent US9242996B2 (Novartis AG, priority 2013, dated 2016).
# Target: activated ERK2 (Homo sapiens (Human), UniProt P28482)
# Experiment: Activated ERK2 kinase assay, ERK2 New conditions (AlphaScreen, ERKtide phosphorylation)
# Assay type: biochemical
# Details: 0.25 nM ERK2, 200 nM ERKtide peptide, 35 μM ATP, 30 min preincubation
# Description: The assay is carried out in 50 mM HEPES [pH 7.5], 5 mM MgCl2, 1 mM DTT, 0.01% Tween-20, 0.05% BSA using 0.25 nM ERK2, 200 nM ERKtide peptide and 35 μM ATP (all concentrations are final in the reaction) in a total volume of 10.25 μL. […] Compound dilution series are prepared in 100% DMSO. ERK2 is preincubated with compounds for 30 minutes at ambient temperature. Reaction is initiated by addition of a substrate cocktail of ERKtide peptide and ATP and is allowed to proceed for 2-3 hours at ambient temperature. Reaction is terminated by addition of 10 μL of a 2× stop buffer consisting of 100 mM Tris-Cl [pH 7.5], 25 mM EDTA, 0.01% Tween 20, 10 μg/mL of AlphaScreen Protein A Acceptor Beads, 10 μg/mL of Streptavidin Donor Beads (PerkinElmer, Waltham, Mass.), and 1.4 μg/mL phospho-EGF Receptor (Thr669) antibody (Cat #3056, Cell Signaling Technology, Danvers, Mass.). Terminated reactions are read, after overnight incubation in the dark, on an EnVision Multilabel Plate Reader (PerkinElmer, Waltham, Mass.), with excitation and emission wavelengths set to 680 nm and 570 nm, respectively. IC50 values are determined using a four-parameter fit.
# activated ERK2, sequence (P28482 whole entry): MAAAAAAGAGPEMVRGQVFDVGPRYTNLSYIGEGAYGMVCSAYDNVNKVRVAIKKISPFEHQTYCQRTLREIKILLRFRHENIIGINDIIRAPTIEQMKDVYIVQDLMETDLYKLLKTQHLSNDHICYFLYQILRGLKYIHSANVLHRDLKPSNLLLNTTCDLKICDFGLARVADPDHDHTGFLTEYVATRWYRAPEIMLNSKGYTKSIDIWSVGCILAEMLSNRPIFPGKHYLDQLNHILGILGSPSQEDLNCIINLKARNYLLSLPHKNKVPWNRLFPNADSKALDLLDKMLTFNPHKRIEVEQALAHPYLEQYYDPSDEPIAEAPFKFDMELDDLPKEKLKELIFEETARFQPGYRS
row,Structure (SMILES),IC50 [nM]
1,"Nc1ncc(C2CCOCC2)nc1-c1ccc(C(=O)N2COC[C@@H]2c2ccccc2)cc1 [Example 54, (S)-(4-(3-amino-6-(tetrahydro-2H-pyran-4-yl)pyrazin-2-yl)phenyl)(4-phenyloxazolidin-3-yl)methanone]",107
2,"CS(=O)(=O)N1CCC(c2cnc(N)c(-c3ccc(C(=O)N[C@H](CO)c4ccccc4)c(F)c3)n2)CC1 [Example 56, (S)-4-(3-amino-6-(1-(methylsulfonyl)piperidin-4-yl)pyrazin-2-yl)-2-fluoro-N-(2-hydroxy-1-phenylethyl)benzamide]",3.89
3,C[C@@H](NC(=O)c1ccc(-c2nc(C3CCN(S(C)(=O)=O)CC3)cnc2N)cc1F)c1cccc(Cl)c1 [Example 57],1.14
4,"COC(=O)N1CCC(c2cnc(N)c(-c3ccc(C(=O)N[C@H](CO)c4ccccc4)c(F)c3)n2)CC1 [Example 58, (S)-methyl 4-(5-amino-6-(3-fluoro-4-((2-hydroxy-1-phenylethyl)carbamoyl)phenyl)pyrazin-2-yl)piperidine-1-carboxylate]",3.61
5,"COC(=O)N1CCC(c2cnc(N)c(-c3ccc(C(=O)N[C@H](CO)c4cccc(Cl)c4)c(F)c3)n2)CC1 [Example 59, (S)-methyl 4-(5-amino-6-(4-((1-(3-chlorophenyl)-2-hydroxyethyl)carbamoyl)-3-fluorophenyl)pyrazin-2-yl)piperidine-1-carboxylate]",0.35
6,"CC(=O)N1CCC(c2cnc(N)c(-c3ccc(C(=O)N[C@H](CO)c4ccccc4)c(F)c3)n2)CC1 [Example 60, (S)-4-(6-(1-acetylpiperidin-4-yl)-3-aminopyrazin-2-yl)-2-fluoro-N-(2-hydroxy-1-phenylethyl)benzamide]",12.4
7,"CC(=O)N1CCC(c2cnc(N)c(-c3ccc(C(=O)N[C@H](CO)c4cccc(Cl)c4)c(F)c3)n2)CC1 [Example 61, (S)-4-(6-(1-acetylpiperidin-4-yl)-3-aminopyrazin-2-yl)-N-(1-(3-chlorophenyl)-2-hydroxyethyl)-2-fluorobenzamide]",1.24
8,"COC(=O)N1CCC(c2cnc(N)c(-c3ccc(C(=O)N[C@H](CO)c4ccccc4)c(F)c3)c2)C1 (stereo partly drawn) [Example 62, methyl 3-(6-amino-5-(3-fluoro-4-(((S)-2-hydroxy-1-phenylethyl)carbamoyl)phenyl)pyridin-3-yl)pyrrolidine-1-carboxylate]",64.1
9,"CS(=O)(=O)N1CCC(c2cnc(N)c(-c3ccc(C(=O)N[C@H](CO)c4ccccc4)c(F)c3)c2)C1 (stereo partly drawn) [Example 63, 4-(2-amino-5-(1-(methylsulfonyl)pyrrolidin-3-yl)pyridin-3-yl)-2-fluoro-N-((S)-2-hydroxy-1-phenylethyl)benzamide]",23.3
10,"CCOCCc1cnc(N)c(-c2ccc(C(=O)N[C@H](CO)c3ccccc3)c(F)c2)n1 [Example 72, (S)-4-(3-amino-6-(2-ethoxyethyl)pyrazin-2-yl)-2-fluoro-N-(2-hydroxy-1-phenylethyl)benzamide]",177
11,"Nc1ncc(C2CCS(=O)(=O)CC2)cc1-c1ccc(C(=O)NCc2ccccc2)c(F)c1 [Example 78, 4-(2-amino-5-(1,1-dioxidotetrahydro-2H-thiopyran-4-yl)pyridin-3-yl)-N-benzyl-2-fluorobenzamide]",172
12,"CS(=O)(=O)c1cccc(CNC(=O)c2ccc(-c3nc(C4CC4)cnc3N)cc2F)c1 [Example 99, 4-(3-amino-6-cyclopropylpyrazin-2-yl)-2-fluoro-N-(3-(methylsulfonyl)benzyl)benzamide]",12.1
13,"C[C@@H]1C[C@H](c2cnc(N)c(-c3ccc(C(=O)NCc4cccc(S(C)(=O)=O)c4)cc3)n2)CCO1 [Example 100, 4-(3-amino-6-((2R,4R)-2-methyltetrahydro-2H-pyran-4-yl)pyrazin-2-yl)-N-(3-(methylsulfonyl)benzyl)benzamide]",7.76
14,"C[C@H]1C[C@@H](c2cnc(N)c(-c3ccc(C(=O)NCc4cccc(S(C)(=O)=O)c4)cc3)n2)CCO1 [Example 101, 4-(3-amino-6-((2S,4S)-2-methyltetrahydro-2H-pyran-4-yl)pyrazin-2-yl)-N-(3-(methylsulfonyl)benzyl)benzamide]",76.9
15,"COC1CCC(c2cnc(N)c(-c3ccc(C(=O)NCc4ccccc4)c(F)c3)n2)C1 (stereo not shown) [Example 104, 4-(3-amino-6-(3-methoxycyclopentyl)pyrazin-2-yl)-N-benzyl-2-fluorobenzamide]",191
16,"Cn1cc(-c2cnc(N)c(-c3ccc(C(=O)N[C@H](CO)c4ccccc4)c(F)c3)c2)cn1 [Example 107, (S)-4-(2-amino-5-(1-methyl-1H-pyrazol-4-yl)pyridin-3-yl)-2-fluoro-N-(2-hydroxy-1-phenylethyl)benzamide]",1.16
17,"Nc1ncc(C2CCOCC2)nc1-c1ccc2c(c1)OCCN(Cc1ccccc1)C2=O [Example 109, 8-(3-amino-6-(tetrahydro-2H-pyran-4-yl)pyrazin-2-yl)-4-benzyl-3,4-dihydrobenzo[f][1,4]oxazepin-5(2H)-one]",5.81
18,"Nc1ncc(C2CCS(=O)(=O)CC2)cc1-c1ccc2c(c1)OCCN(Cc1ccccc1)C2=O [Example 110, 8-(2-amino-5-(1,1-dioxidotetrahydro-2H-thiopyran-4-yl)pyridin-3-yl)-4-benzyl-3,4-dihydrobenzo[f][1,4]oxazepin-5(2H)-one]",1000
19,"Nc1ncc(CCO)nc1-c1ccc(C(=O)N[C@H](CO)c2ccccc2)c(F)c1 [Example 111, (S)-4-(3-amino-6-(2-hydroxyethyl)pyrazin-2-yl)-2-fluoro-N-(2-hydroxy-1-phenylethyl)benzamide]",30.8
20,"COCCc1cnc(N)c(-c2ccc(C(=O)N[C@H](CO)c3ccccc3)c(F)c2)n1 [Example 112, (S)-4-(3-amino-6-(2-methoxyethyl)pyrazin-2-yl)-2-fluoro-N-(2-hydroxy-1-phenylethyl)benzamide]",141
21,"Nc1ncc(C2CCOCC2)cc1-c1ccc(C(=O)N[C@@H]2CCCN(Cc3ccccc3F)C2)c(F)c1 [Example 113, (R)-4-(2-amino-5-(tetrahydro-2H-pyran-4-yl)pyridin-3-yl)-2-fluoro-N-(1-(2-fluorobenzyl)piperidin-3-yl)benzamide]",780
22,"N#CCCc1cnc(N)c(-c2ccc(C(=O)N[C@H](CO)c3ccccc3)c(F)c2)n1 [Example 114, (S)-4-(3-amino-6-(2-cyanoethyl)pyrazin-2-yl)-2-fluoro-N-(2-hydroxy-1-phenylethyl)benzamide]",124
23,"Nc1ncc(C2CCOCC2)nc1-c1ccc(C(=O)N[C@H]2CCCN(Cc3ccccc3F)C2)c(F)c1 [Example 125, (S)-4-(3-amino-6-(tetrahydro-2H-pyran-4-yl)pyrazin-2-yl)-2-fluoro-N-(1-(2-fluorobenzyl)piperidin-3-yl)benzamide]",2230
24,"Nc1ncc(C2CCOCC2)nc1-c1ccc(C(=O)N[C@@H]2CCCN(Cc3ccccc3F)C2)c(F)c1 [Example 126, (R)-4-(3-amino-6-(tetrahydro-2H-pyran-4-yl)pyrazin-2-yl)-2-fluoro-N-(1-(2-fluorobenzyl)piperidin-3-yl)benzamide]",169
25,"Cn1cc(-c2cnc(N)c(-c3ccc(C(=O)N[C@H](CO)c4cccc(Cl)c4)c(F)c3)c2)nn1 [Example 128, (S)-4-(2-amino-5-(1-methyl-1H-1,2,3-triazol-4-yl)pyridin-3-yl)-N-(1-(3-chlorophenyl)-2-hydroxyethyl)-2-fluorobenzamide]",0.835
